Assay results taken from patent US20170333459A1 (priority 2010, published 2017).
Values joined by “and” are separate entries in the source; they are usually repeats but may differ in a detail not shown here. Equal values may be shown once.

What was measured:
[1] = biological target: T1, hOAT3 (Homo sapiens, UniProt Q8TCC7); design: host or cells: MDCK-II cells, transiently transfected; settings: reported for hOAT3-mediated uptake; cited from earlier work
T1 sequence (Q8TCC7 1-542): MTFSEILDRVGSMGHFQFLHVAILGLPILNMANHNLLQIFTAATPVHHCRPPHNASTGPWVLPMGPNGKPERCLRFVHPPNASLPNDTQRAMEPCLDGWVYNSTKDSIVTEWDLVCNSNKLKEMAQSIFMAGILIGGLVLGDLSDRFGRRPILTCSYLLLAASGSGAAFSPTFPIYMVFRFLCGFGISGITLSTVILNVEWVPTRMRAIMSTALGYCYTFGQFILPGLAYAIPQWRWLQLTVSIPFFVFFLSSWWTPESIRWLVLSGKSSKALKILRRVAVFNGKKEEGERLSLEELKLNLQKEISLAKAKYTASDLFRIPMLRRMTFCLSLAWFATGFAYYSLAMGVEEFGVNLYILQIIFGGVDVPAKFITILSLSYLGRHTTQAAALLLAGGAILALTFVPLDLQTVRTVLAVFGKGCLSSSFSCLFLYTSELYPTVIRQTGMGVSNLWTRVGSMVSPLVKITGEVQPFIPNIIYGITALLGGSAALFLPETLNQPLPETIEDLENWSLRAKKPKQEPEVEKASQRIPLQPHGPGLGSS

[2] = system: monkeypox virus; settings: monkey, in vivo, iv, 20 mg/kg; cited from earlier work
[3] = biological target: T1, hOAT3; settings: MDCK
[4] = biological target: T2, human Organic Anion Transporter 1 (hOAT1) (Homo sapiens, UniProt Q4U2R8)
T2 sequence (Q4U2R8 1-563): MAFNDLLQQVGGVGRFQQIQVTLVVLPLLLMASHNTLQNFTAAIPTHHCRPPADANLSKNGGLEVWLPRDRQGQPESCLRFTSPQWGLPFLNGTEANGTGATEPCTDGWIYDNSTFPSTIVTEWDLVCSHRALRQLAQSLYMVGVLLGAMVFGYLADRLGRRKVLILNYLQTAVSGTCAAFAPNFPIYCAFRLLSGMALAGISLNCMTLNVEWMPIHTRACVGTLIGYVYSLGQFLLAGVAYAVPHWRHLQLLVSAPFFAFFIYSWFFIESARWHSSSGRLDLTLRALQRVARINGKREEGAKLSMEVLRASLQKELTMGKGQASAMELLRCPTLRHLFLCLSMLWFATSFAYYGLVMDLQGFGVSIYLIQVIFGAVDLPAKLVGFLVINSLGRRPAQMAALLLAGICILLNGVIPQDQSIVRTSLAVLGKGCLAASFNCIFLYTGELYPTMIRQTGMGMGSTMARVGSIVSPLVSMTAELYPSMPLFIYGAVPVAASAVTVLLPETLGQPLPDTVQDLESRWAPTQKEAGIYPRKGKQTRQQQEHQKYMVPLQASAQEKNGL

[5] = human, in vivo, po
[6] = system: variola virus; settings: read-out: in vitro potency; cited from earlier work
[7] = system: vaccinia virus; design: species or system human; settings: in vivo
[8] = system: rabbitpox virus; design: species or system rabbits; settings: rabbit, in vivo
[9] = human, in vivo, po; remark: listed apart in the source

Row | Compound | lower uptake efficiency (Vmax/Km) [1] [fold] | survivors [2] | net uptake in hOAT3 expressing cells [3] | Uptake (Transporter) ([4]; 5 min) | net uptake in hOAT1 expressing cells ([4]; MDCK) | uptake in the presence of OAT inhibitor probenecid ([4]; MDCK) | nephrotoxicity [5] | EC50 [6] [nM] | substrate for hOAT3 [3] | effect of 20% serum on uptake ([4]; MDCK) | substrate for hOAT1 ([4]; MDCK) | Net Transporter Uptake ([4]; human, MDCK) [pmol/min/cm^2] | clinical outcome of progressive vaccinia [7] | effective single dose [8] [mg/kg] | preventing mortality [8] | survivors ([8]; 20 mg/kg) | ST-246 levels [9]
1 | Nc1ccn(C[C@@H](CO)OCP(=O)(O)O)c(=O)n1 [CDV, cidofovir] | > 100 | 7/8 | not enhanced | 116 ± 22 pmol/min/cm^2 and 117 ± 15 pmol/min/cm^2 | enhanced | decreased | – | – | – | – | – | – | – | – | – | – | –
2 | CCCCCCCCCCCCCCCCOCCCOP(=O)(O)CO[C@H](CO)Cn1ccc(N)nc1=O [CMX001, 1-O-hexadecyloxypropyl cidofovir] | – | – | not enhanced | – | not enhanced | – | no signs of nephrotoxicity have been observed | 100 | not a substrate | substantially reduced | not a substrate | −0.3 ± 5.4 | improvement of progressive vaccinia | 20 | effective in preventing mortality | 11/12 | –
3 | O=C(NN1C(=O)[C@@H]2[C@@H]3C=C[C@@H]([C@H]4C[C@@H]34)[C@@H]2C1=O)c1ccc(C(F)(F)F)cc1 [ST-246, reference compound] | – | – | – | – | – | – | – | – | – | – | – | – | improvement of progressive vaccinia | – | – | – | lower
